Literature values, collected in patent US7659264B2, “CGRP receptor antagonists” (Merck Sharp & Dohme Corp., priority 2004, dated 2010).
Where no end group is shown, it is not given here.

Columns and labels:
facial blood flow [1] = settings: marmoset, electrical stimulation of the trigeminal ganglion
migraine = settings: clinical studies, intravenously administered
[2] = system: diameter of the middle meningeal artery; settings: rats, electrical stimulation of the dura mater, prior administration
facial blood flow [3] = settings: rat, trigeminal ganglion stimulation

| Compound | effect on increase in facial blood flow (facial blood flow [1]) | acute treatment for migraine (migraine) | effect on increased diameter of the middle meningeal artery [2] | effect on increased facial blood flow (facial blood flow [3]) |
| --- | --- | --- | --- | --- |
| NCCCC[C@H](NC(=O)[C@@H](Cc1cc(Br)c(O)c(Br)c1)NC(=O)N1CCC(N2Cc3ccccc3NC2=O)CC1)C(=O)N1CCN(c2ccncc2)CC1 [BIBN4096BS] | could be blocked | safe and effective acute treatment for migraine |  |  |
| CGRP(8-37): a peptide CGRP antagonist; fragment of CGRP that lacks seven N-terminal amino acid residues (VTHRLAGLLSRSGGVVKNNFVPTNVGSKAF; ends and bridges not checked; UniProt P06881 90-119, looked up, fragment) |  |  | blocked | inhibited |
